Measured values as given in US20040121946A9, “Inducing cellular immune responses to her2/neu using peptide and nucleic acid compositions” (priority 2002, published 2004).
Like-named read-outs stand apart in the source and are kept apart here. Where a SMILES comes first, the peptide text is derived from it. Where no end group is shown, it is not given here. [ ]: non-standard residue; d: D form. Abu = CC[C@H](N)C(=O)O

Tests used:
[1] = test system: tumor targets that endogenously express HER2/neu (colon adenocarcinoma cell lines SW403 and HT-29); experiment: Primary in vitro CTL induction, recognition of wild-type peptide and endogenous tumor targets (51Cr release / in situ IFNγ ELISA); assay type: cell-based, human; conditions: number of donors yielding a positive response/total tested; normal donors
[2] = test system: peptide-pulsed target cells and transfected cells endogenously expressing the antigen; experiment: Recall CTL responses of PBMCs from ovarian cancer patients; assay type: cell-based, human; conditions: data from ovarian cancer patients
From the text: Immunogenicity was additionally confirmed using PBMCs isolated from cancer patients. Briefly, PBMCs were isolated from two patients with ovarian cancer, re-stimulated with peptide-pulsed monocytes and assayed for the ability to recognize peptide-pulsed target cells as well as transfected cells endogenously expressing the antigen.

HLA-A*0201 = HLA-A*0201 (Homo sapiens, UniProt P04439, D140Y/D185E/D98H/E176V/E277Q/G131W/G231S/I119V/I121R/I166T/I218V/L300P/L318F/N151K/N90K/P208A/P217A/Q86G/Q94H/R138H/R169H/T345S); assay type: binding
HLA-A*0203 = HLA-A*0203 (Homo sapiens, UniProt P04439, A173T/D140Y/D185E/D98H/E277Q/G131W/G231S/I119V/I121R/I166T/I218V/L180W/L300P/L318F/N151K/N90K/P208A/P217A/Q86G/Q94H/R138H/R169H/T345S); assay type: binding
HLA-A*0206 = HLA-A*0206 (Homo sapiens, UniProt P04439, D140Y/D185E/D98H/E176V/E277Q/F33Y/G131W/G231S/I119V/I121R/I166T/I218V/L300P/L318F/N151K/N90K/P208A/P217A/Q86G/Q94H/R138H/R169H/T345S); assay type: binding
HLA-A*3301 = HLA-A*3301 (Homo sapiens, UniProt P04439, A270S/D185E/E176V/E277Q/E87N/F33T/G231S/H175R/I121M/I218V/I322F/K168Q/K210R/L300P/L318F/M331R/P217A/Q86R/Q94H/R138Q/T323A/T345S/T97I/V358M/Y195H); assay type: binding; conditions: Table XXIII, HLA-A3 supermotif-bearing peptides
HLA-A*1101 = HLA-A*1101 (Homo sapiens, UniProt P04439, A114D/D185E/E176A/F33Y/L180Q/S129P/T187R); assay type: binding; conditions: Table XXIII, HLA-A3 supermotif-bearing peptides
HLA-A*6801 = HLA-A*6801 (Homo sapiens, UniProt P04439, A269V/D185E/E176V/E277Q/E87N/F33Y/G231S/I121M/I166T/I218V/L180W/L300P/L318F/N151K/P208A/P217A/Q86R/R169H/T345S); assay type: binding; conditions: Table XXIII, HLA-A3 supermotif-bearing peptides
HLA-A*3101 = HLA-A*3101 (Homo sapiens, UniProt P04439, A270S/D185E/E176V/E277Q/F33T/G231S/G80R/H175R/I121M/I218V/I322F/K168Q/L300P/L318F/M331R/P217A/Q94H/R138Q/T323A/T345S/T97I/V358M); assay type: binding; conditions: Table XXIII, HLA-A3 supermotif-bearing peptides
[3] = test system: A3-supertype alleles (A*0301, A*1101, A*3101, A*3301, A*6801); experiment: A3-supertype cross-reactive binding; set-up: species or system human; conditions: of five A3-supertype alleles tested
HLA-A*0301 = HLA-A*0301 (Homo sapiens, UniProt P04439); assay type: binding; conditions: Table XXIII, HLA-A3 supermotif-bearing peptides
[4] = HLA-A2 supermotif-bearing peptides, Table XXVII
[5] = Table XXII, A2 supermotif peptides and analogs

With CC(C)C[C@H](NC(=O)[C@H](CCC(N)=O)NC(=O)[C@@H](NC(=O)[C@@H](NC(=O)[C@H](CO)NC(=O)[C@@H](NC(=O)[C@H](CC(C)C)NC(=O)[C@@H](N)CS)[C@@H](C)O)[C@@H](C)O)C(C)C)C(=O)N[C@H](C(=O)O)C(C)C the “CTL Tumor” value [1] was 0/4, the “CTL Wildtype” value [1] was 1/4 and the “CTL Wildtype” value [2] was 1/2.

In the case of CC(C)C[C@H](NC(=O)[C@H](CO)NC(=O)CNC(=O)[C@H](Cc1ccccc1)NC(=O)[C@@H](NC(=O)[C@@H](N)CCCCN)[C@@H](C)O)C(=O)N[C@@H](C)C(=O)N[C@@H](Cc1ccccc1)C(=O)N[C@H](C(=O)O)C(C)C, the IC50 (HLA-A*0201; [4]) is reported as 35 nM and the IC50 (HLA-A*0203; Table XXVII) is reported as 1010 nM.

CC[C@H](C)[C@H](NC(=O)[C@H](CC(C)C)NC(=O)[C@@H](N)CO)C(=O)N[C@@H](CO)C(=O)N[C@@H](C)C(=O)N[C@H](C(=O)N[C@H](C(=O)NCC(=O)N[C@H](C(=O)O)C(C)C)C(C)C)C(C)C was tested, and the IC50 (HLA-A*0201; [4]) was 7.1 nM, the IC50 (HLA-A*0203; Table XXVII) was 16 nM and the IC50 (HLA-A*0206; Table XXVII) was 20 nM.

CC[C@H](C)[C@H](NC(=O)[C@H](CC(C)C)NC(=O)[C@@H](N)Cc1ccc(O)cc1)C(=O)N[C@@H](CCSC)C(=O)N[C@H](C(=O)N[C@@H](CCCCN)C(=O)N[C@@H](CS)C(=O)N[C@@H](Cc1c[nH]c2ccccc12)C(=O)N[C@@H](CCSC)C(=O)N[C@H](C(=O)O)C(C)C)C(C)C was tested, and the IC50 (HLA-A*0201; [4]) was 13 nM, the IC50 (HLA-A*0203; Table XXVII) was 116 nM and the IC50 (HLA-A*0206; Table XXVII) was 18 nM.

In the case of CC[C@H](C)[C@H](NC(=O)[C@H](CCSC)NC(=O)[C@H](Cc1c[nH]c2ccccc12)NC(=O)[C@H](CS)NC(=O)[C@H](CCCCN)NC(=O)[C@@H](NC(=O)[C@H](CCSC)NC(=O)[C@@H](NC(=O)[C@H](CCSC)NC(=O)[C@@H](N)Cc1ccc(O)cc1)[C@@H](C)CC)C(C)C)C(=O)O, the “CTL Tumor” value [1] is reported as 0/1, the “CTL Wildtype” value [1] is reported as 0/1 and the “CTL Tumor” value [2] is reported as 2/2. For the same compound, the “CTL Wildtype” value [2] was 2/2.

Compound CC[C@H](NC(=O)[C@H](CC(C)C)NC(=O)[C@H](C)N)C(=O)N[C@@H](CCCNC(=N)N)C(=O)N[C@@H](Cc1c[nH]c2ccccc12)C(=O)NCC(=O)N[C@@H](CC(C)C)C(=O)N[C@@H](CC(C)C)C(=O)N[C@@H](CC(C)C)C(=O)O [Her2/neu.5.B3] has an IC50 (HLA-A*0203; [5]) of 12 nM.

With CC[C@H](NC(=O)[C@@H](NC(=O)[C@H](C)N)[C@@H](C)O)C(=O)N[C@@H](CCCNC(=N)N)C(=O)N[C@@H](Cc1c[nH]c2ccccc12)C(=O)NCC(=O)N[C@@H](CC(C)C)C(=O)N[C@@H](CC(C)C)C(=O)N[C@H](C(=O)O)C(C)C [Her2/neu.5.T2B3V9] (H-AT[Abu]RWGLLV-OH) the IC50 (HLA-A*0201; [5]) was 16700 nM and the IC50 (HLA-A*0206; [5]) was 2180 nM.

For CC[C@H](NC(=O)[C@H](CCSC)NC(=O)[C@H](C)N)C(=O)N[C@@H](CCCNC(=N)N)C(=O)N[C@@H](Cc1c[nH]c2ccccc12)C(=O)NCC(=O)N[C@@H](CC(C)C)C(=O)N[C@@H](CC(C)C)C(=O)N[C@H](C(=O)O)C(C)C [Her2/neu.5M2B3V9] (H-AM[Abu]RWGLLV-OH), the IC50 (HLA-A*0201; [5]) was 36 nM, the IC50 (HLA-A*0203; [5]) was 16 nM and the IC50 (HLA-A*0206; [5]) was 726 nM.

In the case of CC[C@H](NC(=O)[C@@H](NC(=O)[C@H](C)N)C(C)C)C(=O)N[C@@H](CCCNC(=N)N)C(=O)N[C@@H](Cc1c[nH]c2ccccc12)C(=O)NCC(=O)N[C@@H](CC(C)C)C(=O)N[C@@H](CC(C)C)C(=O)N[C@H](C(=O)O)C(C)C [Her2/neu.5V2B3V9] (H-AV[Abu]RWGLLV-OH), the IC50 (HLA-A*0201; [5]) is reported as 10000 nM, the IC50 (HLA-A*0203; [5]) is reported as 141 nM and the IC50 (HLA-A*0206; [5]) is reported as 2180 nM.

CC[C@H](C)[C@H](NC(=O)[C@H](CCC(=O)O)NC(=O)[C@@H](NC(=O)[C@H](CC(C)C)NC(=O)[C@@H](N)CO)[C@@H](C)O)C(=O)N[C@@H](CC(C)C)C(=O)N[C@@H](CCCCN)C(=O)NCC(=O)NCC(=O)N[C@H](C(=O)O)C(C)C [Her2/neu.144] showed an IC50 (HLA-A*0203; [5]) of 22 nM.

CC[C@H](NC(=O)[C@H](CC(N)=O)NC(=O)[C@@H](NC(=O)[C@@H](N)CC)C(C)C)C(=O)N[C@@H](CO)C(=O)N[C@@H](CCC(N)=O)C(=O)N[C@@H](Cc1ccccc1)C(=O)N[C@@H](CC(C)C)C(=O)N[C@@H](CCCNC(=N)N)C(=O)O [Her2/neu.528.B1B4] (H-[Abu]VN[Abu]SQFLR-OH) showed an IC50 (HLA-A*3301) of 58 nM, an IC50 (HLA-A*1101) of 80 nM and an IC50 (HLA-A*6801) of 10 nM. The IC50 (HLA-A*3101) was 38 nM, the “No. of A3 Alleles Crossbound” value [3] was 5 and the IC50 (HLA-A*0301) was 177 nM.

For CC(C)C[C@H](NC(=O)[C@H](Cc1ccccc1)NC(=O)[C@H](CCC(N)=O)NC(=O)[C@H](CO)NC(=O)[C@H](CS)NC(=O)[C@H](CC(N)=O)NC(=O)[C@@H](NC(=O)[C@@H](N)CS)C(C)C)C(=O)N[C@@H](CCCNC(=N)N)C(=O)O [Her2/neu.528], the IC50 (HLA-A*3301) was 50 nM, the IC50 (HLA-A*1101) was 194 nM and the IC50 (HLA-A*6801) was 18 nM. The IC50 (HLA-A*3101) was 34 nM, the “No. of A3 Alleles Crossbound” value [3] was 4 and the IC50 (HLA-A*0301) was 7330 nM.

Work on AVPLDSTFYK [Her2/neU.997.V2K10] yielded an IC50 (HLA-A*3301) of 22300 nM, an IC50 (HLA-A*1101) of 33 nM and an IC50 (HLA-A*6801) of 229 nM. For the same compound, the IC50 (HLA-A*3101) was 1500 nM, the “No. of A3 Alleles Crossbound” value [3] was 2 and the IC50 (HLA-A*0301) was 550 nM.

H-QLMPYGCLL-OH [Her2/neu.799] gave an IC50 (HLA-A*0203; [5]) of 114 nM and an IC50 (HLA-A*0206; [5]) of 712 nM.

In the case of LVKSPNHVR [Her2/neu.852.R9], the IC50 (HLA-A*3301) is reported as 107 nM, the IC50 (HLA-A*1101) is reported as > 10000 nM and the IC50 (HLA-A*6801) is reported as 50 nM. For the same compound, the IC50 (HLA-A*3101) was 198 nM, the “No. of A3 Alleles Crossbound” value [3] was 3 and the IC50 (HLA-A*0301) was 7860 nM.

Work on VLIQRNPQV yielded an IC50 (HLA-A*0201) of 55 nM, an IC50 (HLA-A*0203; Table XXVII) of 135 nM and an IC50 (HLA-A*0206; Table XXVII) of 385 nM.

Work on VLLGVVFGV yielded an IC50 (HLA-A*0201; [4]) of 2.4 nM and an IC50 (HLA-A*0206; Table XXVII) of 6 nM.
